Reference: patent US7074806B2, “Glucocorticoid mimetics, methods of making them, pharmaceutical compositions, and uses thereof” (Boehringer Ingelheim Pharmaceuticals, Inc., priority 2002, dated 2006)

What follows are molecules tested against T1, human glucocorticoid receptor (GR) complex (Homo sapiens, UniProt P04150) (assay: Glucocorticoid Receptor Competitive Binding Assay (fluorescence polarization)). Details: competition with TAMRA-labeled dexamethasone for binding to GR; result in words only.
T1 construct: made in house; host or cells: insect expression system (baculovirus lysate)
T1 sequence (P04150 1-777): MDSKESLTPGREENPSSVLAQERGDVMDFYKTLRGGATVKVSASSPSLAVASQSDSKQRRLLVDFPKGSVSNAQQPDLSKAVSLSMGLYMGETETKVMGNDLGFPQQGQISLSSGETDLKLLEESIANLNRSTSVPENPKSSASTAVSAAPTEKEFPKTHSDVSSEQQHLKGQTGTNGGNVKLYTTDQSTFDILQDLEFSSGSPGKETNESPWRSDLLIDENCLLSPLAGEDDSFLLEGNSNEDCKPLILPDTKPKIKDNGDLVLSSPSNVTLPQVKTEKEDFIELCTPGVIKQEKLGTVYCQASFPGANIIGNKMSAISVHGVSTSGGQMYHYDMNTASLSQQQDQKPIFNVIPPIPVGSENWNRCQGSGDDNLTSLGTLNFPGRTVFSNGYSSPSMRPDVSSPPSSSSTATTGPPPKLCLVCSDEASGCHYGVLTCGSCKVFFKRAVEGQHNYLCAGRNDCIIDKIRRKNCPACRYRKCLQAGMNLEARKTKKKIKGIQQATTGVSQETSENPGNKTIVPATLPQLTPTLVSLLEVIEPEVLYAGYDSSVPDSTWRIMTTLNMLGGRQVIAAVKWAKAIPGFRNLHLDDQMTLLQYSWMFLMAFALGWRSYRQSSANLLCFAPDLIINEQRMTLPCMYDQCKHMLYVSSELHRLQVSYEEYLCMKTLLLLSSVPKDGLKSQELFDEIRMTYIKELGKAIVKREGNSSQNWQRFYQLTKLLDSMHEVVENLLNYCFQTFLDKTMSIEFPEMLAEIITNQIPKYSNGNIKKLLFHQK
Procedure: Compounds of the invention were evaluated for binding to the steroid receptor by a fluorescence polarization competitive binding assay. Detailed descriptions for preparation of recombinant glucocorticoid receptor (GR) complex used in the assay is described in Goldrick et al., U.S. provisional application No. 60/291,877, filed May 18, 2001 (corresponding to Goldrick et al., U.S. nonprovisional application No. 10/151,133, filed May 20, 2002, both incorporated herein by reference in their entirety. Preparation of the tetramethyl rhodamine (TAMRA)-labeled dexamethasone probe was accomplished using a standard literature procedure (M. Pons et al., J. Steroid Biochem., 1985, 22, pp. 267–273).
A. Glucocorticoid Receptor Competitive Binding Assay
Step 1. Characterization of the Fluorescent Probe
The wavelengths for maximum excitation and emission of the fluorescent probe should first be measured. An example of such a probe is rhodamine (TAMRA)-labeled dexamethasone.
The affinity of the probe for the steroid receptor was then determined in a titration experiment. The fluorescence polarization value of the probe in assay buffer was measured on an SLM-8100 fluorometer using the excitation and emission maximum values described above. Aliquots of expression vector lysate were added and fluorescence polarization was measured after each addition until no further change in polarization value was observed. Non-linear least squares regression analysis was used to calculate the dissociation constant of the probe from the polarization values obtained for lysate binding to the probe.
Step 2. Screening for Inhibitors of Probe Binding
This assay uses fluorescence polarization (FP) to quantitate the ability of test compounds to compete with tetramethyl rhodamine (TAMRA)-labeled dexamethasone for binding to a human glucocorticoid receptor (GR) complex prepared from an insect expression system. The assay buffer was: 10 mM TES, 50 mM KCl, 20 mM Na2MoO4.2H2O, 1.5 mM EDTA, 0.04% w/v CHAPS, 10% v/v glycerol, 1 mM dithiothreitol, pH 7.4. Test compounds were dissolved to 1 mM in neat DMSO and then further diluted to 10×assay concentration in assay buffer supplemented with 10% v/v DMSO. Test compounds were serially diluted at 10×assay concentrations in 10% DMSO-containing buffer in 96-well polypropylene plates. Binding reaction mixtures were prepared in 96-well black Dynex microtiter plates by sequential addition of the following assay components to each well: […] of 10×test compound solution, 85 μL of GR-containing baculovirus lysate diluted 1:170 in assay buffer, and 50 μL of 15 nM TAMRA-labeled dexamethasone. Positive controls were reaction mixtures containing no test compound; negative controls (blanks) were reaction mixtures containing 0.7 μM to 2 μM dexamethasone. The binding reactions were incubated for 1 hour at room temperature and then read for fluorescence polarization in the LJL Analyst set to 550 nm excitation and 580 nm emission, with the Rhodamine 561 dichroic mirror installed. IC50 values were determined by iterative non-linear curve fitting of the FP signal data to a 4-parameter logistic equation.

SMILES | activity in the GR binding assay
CNC(Cc1ccnc2ccccc12)(CC(C)(C)c1cc(F)ccc1OC)C(F)(F)F (stereo not drawn) [Compound 24, [3-(5-Fluoro-2-methoxy-phenyl)-3-methyl-1-quinolin-4-ylmethyl-1-trifluoromethyl-butyl]-methyl-amine] | demonstrated activity
CCCCNC(Cc1ccnc2ccccc12)(CC(C)(C)c1cc(F)ccc1OC)C(F)(F)F (stereo not drawn) [Compound 28, Butyl-[3-(5-fluoro-2-methoxy-phenyl)-3-methyl-1-quinolin-4-ylmethyl-1-trifluoromethyl-butyl]-amine] | demonstrated activity
COc1ccc(F)cc1C(C)(C)CC(N)(Cc1ccnc2ccccc12)C(F)(F)F (stereo not drawn) [Compound 12, 3-(5-Fluoro-2-methoxy-phenyl)-3-methyl-1-quinolin-4-ylmethyl-1-trifluoromethyl-butylamine] | demonstrated activity
COc1ccc(F)cc1C(C)(C)CC(Cc1ccnc2ccccc12)(NCC(C)C)C(F)(F)F (stereo not drawn) [Compound 27, [3-(5-Fluoro-2-methoxy-phenyl)-3-methyl-1-quinolin-4-ylmethyl-1-trifluoromethyl-butyl]-isobutyl-amine] | demonstrated activity
CCCNC(Cc1ccnc2ccccc12)(CC(C)(C)c1cc(F)ccc1OC)C(F)(F)F (stereo not drawn) [Compound 26, [3-(5-Fluoro-2-methoxy-phenyl)-3-methyl-1-quinolin-4-ylmethyl-1-trifluoromethyl-butyl]-propyl-amine] | demonstrated activity
COc1ccc(F)cc1C(C)(C)CC(N)(Cc1cc2ccccc2[nH]1)C(F)(F)F (stereo not drawn) [Compound 2, 3-(5-Fluoro-2-methoxy-phenyl)-1-(1H-indol-2-ylmethyl)-3-methyl-1-trifluoromethyl-butylamine] | demonstrated activity
